# Measured values from ChEMBL document CHEMBL1201862, “PubChem BioAssay data set” (2004).
#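 Cells were grown in 96-well plates and exposed to each compound for 48 hours at five concentrations; endpoints were interpolated linearly between bracketing concentrations, or set to the highest concentration if not reached. GI50 is the concentration that inhibits growth by half.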 Active and inactive are the calls of the source. Rule as the data show it: active = GI50 up to about 1.1 µM and inactive = higher.
# Experiments:
# Test in all cases: NCI-60 cell line screen, 48 h
# A549 = test system: A549
# BT-549 = test system: BT-549
# EKVX = test system: EKVX
# HCC 2998 = test system: HCC 2998
# HCT-116 = test system: HCT-116
# HOP-92 = test system: HOP-92
# HT-29 = test system: HT-29
# Hs-578T = test system: Hs-578T
# IGROV-1 = test system: IGROV-1
# KM12 = test system: KM12
# LOX IMVI = test system: LOX IMVI
# NCI-H226 = test system: NCI-H226
# NCI-H23 = test system: NCI-H23
# OVCAR-5 = test system: OVCAR-5
# SF-539 = test system: SF-539
# SK-OV-3 = test system: SK-OV-3
# SNB-75 = test system: SNB-75
# U-251 = test system: U-251
# UO-31 = test system: UO-31
Structure (SMILES),GI50 (A549),GI50 (BT-549),GI50 (EKVX),GI50 (HCC 2998),GI50 (HCT-116),GI50 (HOP-92),GI50 (HT-29),GI50 (Hs-578T),GI50 (IGROV-1),GI50 (KM12),GI50 (LOX IMVI),GI50 (NCI-H226),GI50 (NCI-H23),GI50 (OVCAR-5),GI50 (SF-539),GI50 (SK-OV-3),GI50 (SNB-75),GI50 (U-251),GI50 (UO-31)
NC(=O)C1=CC2C3C=CC2(O)C(=O)OC3O1 (centres undefined),34.7 µM (inactive),4.06 µM (inactive),3.44 µM (inactive),12.2 µM (inactive),2.62 µM (inactive),2.43 µM (inactive),2.92 µM (inactive),1.81 µM (inactive),2.92 µM (inactive),2.94 µM (inactive),2.14 µM (inactive),2.31 µM (inactive),2.91 µM (inactive),22.8 µM (inactive),3.56 µM (inactive),13.5 µM (inactive),7.98 µM (inactive),8.59 µM (inactive),3.67 µM (inactive)
Cc1ccc2c(c1)C(=O)C1(C2)Cc2c(C)cccc2C1=O (centres undefined),> 100 µM (inactive),> 100 µM (inactive),> 100 µM (inactive),> 100 µM (inactive),> 100 µM (inactive),> 100 µM (inactive),> 100 µM (inactive),> 100 µM (inactive),> 100 µM (inactive),> 100 µM (inactive),> 100 µM (inactive),> 100 µM (inactive),> 100 µM (inactive),> 100 µM (inactive),> 100 µM (inactive),> 100 µM (inactive),> 100 µM (inactive),> 100 µM (inactive),> 100 µM (inactive)
OC1c2c(ccc3c2CCC3)CC12Cc1ccccc1C2 (centres undefined),17.1 µM (inactive),16.9 µM (inactive),16.4 µM (inactive),13.5 µM (inactive),16 µM (inactive),13 µM (inactive),17 µM (inactive),16.6 µM (inactive),17.7 µM (inactive),14.9 µM (inactive),15.9 µM (inactive),13.4 µM (inactive),16.8 µM (inactive),17.2 µM (inactive),21.3 µM (inactive),15.7 µM (inactive),13.8 µM (inactive),15.9 µM (inactive),14.2 µM (inactive)
c1ccc(-c2c[nH]c(SC(c3ccccc3)c3ccccc3)n2)cc1,21.9 µM (inactive),25.1 µM (inactive),13.3 µM (inactive),17 µM (inactive),12.7 µM (inactive),9.51 µM (inactive),10.9 µM (inactive),33.3 µM (inactive),19.2 µM (inactive),16.8 µM (inactive),17.6 µM (inactive),17.3 µM (inactive),14.7 µM (inactive),55.7 µM (inactive),30.4 µM (inactive),46.9 µM (inactive),32.1 µM (inactive),15 µM (inactive),29.6 µM (inactive)
C/C(C=O)=N\Nc1cc(C)c2ccccc2n1,20.6 µM (inactive),12.8 µM (inactive),16.9 µM (inactive),15.1 µM (inactive),14.5 µM (inactive),15.1 µM (inactive),16.7 µM (inactive),17.3 µM (inactive),16.9 µM (inactive),15 µM (inactive),13.2 µM (inactive),6.52 µM (inactive),12.4 µM (inactive),17.2 µM (inactive),11.7 µM (inactive),20.9 µM (inactive),15.1 µM (inactive),14 µM (inactive),14.9 µM (inactive)
COc1cc(CNc2c3ccccc3nc3ccccc23)cc(OC)c1OC,3.32 µM (inactive),3.87 µM (inactive),5.78 µM (inactive),2.78 µM (inactive),1.44 µM (inactive),3.58 µM (inactive),2.49 µM (inactive),3.64 µM (inactive),3.81 µM (inactive),6.21 µM (inactive),2.39 µM (inactive),3.15 µM (inactive),3.46 µM (inactive),3.92 µM (inactive),3.95 µM (inactive),5.47 µM (inactive),4.02 µM (inactive),5.08 µM (inactive),3.05 µM (inactive)
CCOC(=O)C1=CNC(C(=O)OCC)C1c1cccn1-c1ccc(Cl)cc1[N+](=O)[O-] (centres undefined),32.1 µM (inactive),22.8 µM (inactive),17.9 µM (inactive),16.3 µM (inactive),17.1 µM (inactive),17.6 µM (inactive),16.1 µM (inactive),15.8 µM (inactive),9.4 µM (inactive),20.2 µM (inactive),15.9 µM (inactive),20.1 µM (inactive),36.6 µM (inactive),12.5 µM (inactive),16.6 µM (inactive),32.7 µM (inactive),17.4 µM (inactive),20.7 µM (inactive),22.9 µM (inactive)
NCC(Cc1ccccc1)P(=O)(O)O (centres undefined),> 100 µM (inactive),> 100 µM (inactive),> 100 µM (inactive),> 100 µM (inactive),> 100 µM (inactive),> 100 µM (inactive),> 100 µM (inactive),> 100 µM (inactive),> 100 µM (inactive),> 100 µM (inactive),> 100 µM (inactive),> 100 µM (inactive),> 100 µM (inactive),> 100 µM (inactive),> 100 µM (inactive),> 100 µM (inactive),> 100 µM (inactive),> 100 µM (inactive),> 100 µM (inactive)
CCC(=O)C(CCN1CCC2(CCCc3ccccc32)CC1)(c1ccccc1)c1ccccc1,3.63 µM (inactive),0.685 µM (active),4 µM (inactive),2.64 µM (inactive),1.42 µM (inactive),1.47 µM (inactive),0.993 µM (active),2.33 µM (inactive),2.77 µM (inactive),1.79 µM (inactive),0.851 µM (active),2.05 µM (inactive),2.15 µM (inactive),3.74 µM (inactive),2.95 µM (inactive),3.19 µM (inactive),2.95 µM (inactive),2.62 µM (inactive),2.39 µM (inactive)
C=Cc1nc2c(Cl)ncnc2n1Cc1ccccc1,11.2 µM (inactive),4.71 µM (inactive),4.7 µM (inactive),2.61 µM (inactive),2.06 µM (inactive),2.07 µM (inactive),2.62 µM (inactive),13.2 µM (inactive),3.08 µM (inactive),2.84 µM (inactive),2.76 µM (inactive),3.08 µM (inactive),3.52 µM (inactive),14.7 µM (inactive),2.13 µM (inactive),15.3 µM (inactive),13.6 µM (inactive),10.5 µM (inactive),2.51 µM (inactive)
Cc1ccc(S(=O)(=O)N/C(=N\O)Nc2ccc(Cl)c(Cl)c2)cc1,13.3 µM (inactive),9.64 µM (inactive),5.92 µM (inactive),2.14 µM (inactive),5.31 µM (inactive),3.05 µM (inactive),12.8 µM (inactive),3.73 µM (inactive),13.9 µM (inactive),11.2 µM (inactive),4.11 µM (inactive),17.1 µM (inactive),15.7 µM (inactive),3.2 µM (inactive),12.1 µM (inactive),15 µM (inactive),5.14 µM (inactive),4.36 µM (inactive),5.02 µM (inactive)
